{"source": "patent US12704493B2", "about": "(priority 2020, dated 2026)", "key": {"[1]": {"system": "electroactive microorganisms"}, "[2]": {"system": "electroactive microorganisms of the biosensor anode"}}}
{"smiles": "O=S(=O)([O-])[O-].[Cu+2]", "note": "[Cu, CuSO4]", "values": [{"measurement": "change of open circuit voltage with each spike", "setting": "[1]", "result": "reduced"}]}
{"smiles": "C=O", "note": "[formaldehyde]", "values": [{"measurement": "decrease in the estimated open circuit voltage", "setting": "[2]", "result": "~90", "unit": "%"}]}
